This is an account of results in article PMC9223658, “New Borane-Protected Derivatives of α-Aminophosphonous Acid as Anti-Osteosarcoma Agents: ADME Analysis and Molecular Modeling, In Vitro Studies on Anti-Cancer Activities, and NEP Inhibition as a Possible Mechanism of Anti-Proliferative Activity” (International Journal of Molecular Sciences, 2022).

What all share (assay type): cell-based, human
Test [1] relates to osteosarcoma Saos-2 cells. The experiment in a line: MTT proliferation assay, 96 h. The conditions noted are these: for IC50: SAOS-2, proliferation, 10% FBS, read-out: IC50 (µM ± SD) Saos-2. How it is done:
(§1) One of the features specific totumor cells is the unlimited potential for proliferation. […] To this end, the assay conditions were established suchthat they encourage the proliferation of OS cells, i.e., the cell cultures at low density were incubated with compounds diluted in the growth medium (10% FBS) for an extended time of 96 h. Additionally, cisplatin, i.e., a common cytostatic used in osteosarcoma treatment, was included as a positive control in this study. Moreover, since the new generation of anti-cancer compounds is highly desired to be inert (non-cytotoxic) towards normal cells, the influence of compounds 1–7 on the viability of human normal cells (osteoblasts hFOB 1.19 and colon fibroblasts CCD-18Co) was also determined.To this end, the assay conditions were established such that they restrict the proliferation of OS cells and to establish whether the compounds have cytotoxic potential, i.e., the cell cultures were incubated with compounds diluted in the medium with a reduced concentration of FBS (2%) for a shortened time of 24 h. […] However, this activity varied depending on both the types of the compounds and the osteosarcoma cell lines (Table 4).
(§2) The anti-proliferative activity of compounds 1–7 against the HOS and Saos-2 osteosarcoma cells and the viability of the human normal hFOB 1.19 and CCD-18Co cells were screened by means of the MTT method. This method is commonly used to assess cell viability and proliferation or to determine the cytotoxicity of any compounds. It is a reliable method for this purpose because it is based on measurement of the level reduction in MTT dye to formazan byNAD(P)H-dependent oxidoreductase enzymes of metabolically active cells.
(§3) To assess the anti-proliferative activity of compounds 1–7 against the HOS and Saos-2 osteosarcoma cells, 3.0 × 10^4 cells/mLseeded (low density culture) into 96-well plates (Nunc, Roskilde, Denmark) were incubated with each compound at concentrations of 3.125, 6.25, 12.5, 25, 50, 100 and 200 µM prepared in medium with 10% FBS (growth medium) for 96 h. Additionally, cisplatin (Sigma Aldrich), i.e., a common cytostatic used in osteosarcoma treatment, was included as a positive control in this study. It was tested in the same conditions as compounds 1–7. The negative control was constituted by the untreated cells (0 µM). Next, the MTT assay was carried out as described previously.
(§4) The results of these assays were calculated as a percent of the untreated cells (100%; control). Then, the IC50 (concentration resulting in 50% inhibition of proliferation) and CC50 (concentration resulting in a 50% decrease in viability) values were calculated from a non-linear regression (log(inhibitor) vs. normalized response-variable slope) using GraphPad Prism 5.0 (GraphPAD Software Inc., San Diego, CA, USA). The IC50 and CC50 results were presented as themean ± SD of at least three experiments. In the case of the BrdU assay, the results were presented as a percent of untreated cells (100%; control).

The test system of the next test is osteosarcoma HOS cells. Description: MTT proliferation assay, 96 h. To be noted: HOS; for IC50: proliferation, 10% FBS, read-out: IC50 (µM ± SD) HOS. How it is done: as §1, §2, §3, §4
In the next test the test system is HOS cells. The experiment in a line: Migration, wound and transwell assays. The conditions noted are these: 24 h; for decrease of migration: wound and transwell assays. The method, then: (§5) The migration of the HOS and Saos-2 cells was examined using the wound and transwell assays. The wound assay was performed in plastic plates (3-cm diameter, Nunc), in which the osteosarcoma cells were seeded at a density of 3.0 × 10^5 cells/mL. The assay was performed as described previously. Briefly, confluent cell cultures (with wounds) were treated with compounds 4 and 6 at concentrations of 12.5, 25, 50 µM and 20, 40, 80 µM as well as 15, 30, 60 µM and 21.25, 42.5, 85 µM for 24 h, respectively. The solutions of the compounds were prepared in a medium with 2% FBS. The control was constituted by the untreated cells (0 µM). To determine the migratory activity of the cells, the width of the wounds (at 0 and 24 h after incubation) was measured, and photos were taken using an inverted microscope Olympus CKX41 equipped with Image Processing (CellSense) software (Olympus, Tokyo, Japan). The results were expressed as a percentage of wound closure calculated using the following formula: ((width of wound at 0h—width of wound after 24h)/width of wound at 0h) × 100%.
(§6) The transwell migration assay was performed using inserts equipped with a membrane with 8 µm pore size in 24-well plates (Corning, Durham, NC, USA). To this end, the osteosarcoma cells (1 × 10^6 cells/mL) were suspended in a medium supplemented with 0.5% FBS and compounds 4 or 6 at the same concentrations as in the wound assay. The cells were added to the top chambers. The bottom chambers were filled with an appropriate medium supplemented with 10% FBS. After 24 h of incubation, the number of osteosarcoma cells migrating to the lower surface of the insert membrane was quantified using Calcein AM (Sigma Aldrich), which releases the fluorophore after intracellular degradation. The fluorescence was measured by means of a Perkin Elmer Victor^TM plate reader (Thermo Fisher Scientific, Rockford, IL, USA). The cell migratory activity after the treatment with compounds 4 and 6 was calculated as a percentage of invading cells in comparison with the number of invading untreated cells (100%; control).

A further test has as its system Saos-2 cells. Description: Migration, wound and transwell assays. The conditions noted are these: Saos-2, 24 h. The method, then: as §5, §6
In test [2] the test system is active caspase 9 in HOS cells. Description: Active caspase 9 assay (flow cytometry). To be noted: 72 h. How it is done: The level of active executor caspase 3 and initiator caspase 9 was determined to examine whether compounds 4 and 6 induced apoptosis in the HOS and Saos-2 cells. The influence of compounds 4 and 6 on HOS and Saos-2 were determined with the caspase 3 assay, whereas the influence of compound 6 on the HOS cells was investigated with the caspase 9 assay. In both assays, the osteosarcoma cells (3.0 × 10^5 cells/mL) were seeded in 6-well plates. The cells were treated with compounds 4 and 6 at concentrations of 12.5, 25, 50 µM and 20, 40, 80 µM as well as 15, 30, 60 µM and 21.25, 42.5, 85 µM for 72 h, respectively. The solutions of the compounds were prepared in a medium with 2% FBS. […] Next, floating and adherent cells were harvested and subjected to further steps of the staining procedures according to the manufacturer’s instruction. The level of active caspase 3 and caspase 9 was determined using the PE Active Caspase-3 Apoptosis Kit (BD Pharmingen^TM) and the CaspaTag^TM Caspase-9 in Situ Assay Kit (Millipore, Darmstadt, Germany), respectively. The number of stained cells (active caspase 3- or 9-positive cells) was measured using FACS Calibur, and the obtained data were analyzed using Cell Quest Pro Version 6.0. for the Macintosh operating system (BD Pharmingen™). The presented results were calculated as a percent of cells with either active caspase 3 or 9 among all the analyzed cells.

Consider `[BH3-][P+](OC(C)C)(OC(C)C)C(Nc1ccc(Br)cc1)c1ccc([N+](=O)[O-])cc1` (stereo not drawn) [Compound 4, [1-(N-p-bromophenylamino)]-1-(p-nitrophenyl)methylphosphonousacid-borane diisopropyl ester], for which the IC50 in test [1] (Homo sapiens, MTT) turned out to be 59.9 ± 15 µM; in the test with osteosarcoma HOS cells (Homo sapiens) it was 27.2 ± 7.8 µM. The same compound returned an inhibition at 25 µM in test [1] (Homo sapiens, Saos-2, 25 µM, MTT, compared to the control) of approximately 27%. Moreover, the “lowest concentration that inhibited proliferation statistically significantly” value stood at 25 µM in test [1] (Saos-2, MTT) and 6.25 µM in the test on osteosarcoma HOS cells. The compound also showed an inhibition at 6.25 µM with osteosarcoma HOS cells (Homo sapiens, 6.25 µM) of approximately 18%. For the same compound, the decrease of migration entry is recorded as “approx. 19%” with HOS cells (25 µM) and “approx. 38%” with HOS cells (50 µM). The effect on migration result in the test on Saos-2 cells is “not affected”.
As for `[BH3-][P+](OC(C)C)(OC(C)C)C(Nc1ccc(C)cc1)c1ccccc1` (stereo not drawn) [Compound 6, [1-(N-p-tolylamino)]-1-phenylmethylphosphonous acid-borane diisopropyl ester], the IC50 in test [1] (Homo sapiens, MTT) was 86.8 ± 15.7 µM; with osteosarcoma HOS cells (Homo sapiens), 41.5 ± 6.9 µM. Besides, the depression of migration entry in the test with HOS cells (80 µM) is reported as “approx. 20%”. For the same compound, the effect on migration entry in the test on Saos-2 cells was “not affected”. Moreover, the entries for the “increase in active caspase 9 vs untreated cells” value in test [2] (40 µM) and in test [2] (80 µM) were “approx. 4%” and approximately 6%, respectively.
